“Also recorded” adds a separate entry of the source. Structures can show the parent of a compound that is named as a salt.
Key:
[1] = test system: normoglycemic rats; assay: Oral glucose tolerance test in normoglycemic rats (Examples 27, 28); type: in vivo, Male Wistar rats; conditions: vs control group
Procedure: (§1) Male Wistar rats were utilized provided by Mato Grosso do Sul's Federal University's Biotherium. Until the experiments were carried out, the animals have had free access to feed and water. The room temperature was kept at 22±2° C. and the light/dark cycle was of 12 hours.
The glucose tolerance test is a reference method for the diagnosis of diabetes or glucose intolerance (5).
Distinct rat groups were orally treated, once a day, with 3-(carbohydrazyl-N′-phenylsubstituted)-1-benzosubstituted-β-carbolinic-3-carbohydrazide (compound 7a or ANIS-BZ) at doses: 0.5, 1 or 5 mg/kg or vehicle (control) for 3 days. Similarly, another rat group received metformin (reference drug used for lowering glucose serum levels) in a 300 mg/kg dose, orally, once a day for 3 days. The oral glucose tolerance test was carried out by administering of a glucose solution (2 g/kg body mass). Glycemia was determined at zero time (before oral administering) and at 60 minutes after the glucose overload.
Distinct groups of rats were treated orally, once a day, with N(-ethylamine)-1-benzosubstituted-β-carboline-3-carboxamide (compound 4a or ANIS-NH2) at doses: 0.5, 1 or 5 mg/kg, or vehicle for 3 days. Similarly, another group of rats received metformin in a 300 mg/kg dose orally for 3 days once a day. The oral glucose tolerance test was done under the administration of a glucose solution (2 g/kg body mass). Glycemia will be determined at the zero (before oral administration) time and 60 minutes after glucose overload.

[2] = test system: SHR hypertensive rats; assay: Plasma cholesterol levels test in SHR hypertensive rats; type: in vivo, Male SHR; conditions: 25 days of treatment (15 mg/Kg) oral, effect more pronounced for 5a and 7a
Procedure: (§2) Distinct rat groups were orally treated, once a day, with 5 mg/kg of compounds 4a or 5a or 6a during the first 4 days, 10 mg/kg during the next 4 days and 15 mg/kg until the end of the treatment period or vehicle (control) for the same days. Similarly, another rat group received metformin (MET) (reference drug used for lowering glucose serum levels) in a 300 mg/kg dose, orally, from day 1 to the end of the treatment. Plasma cholesterol levels were measured in triplicate 12 hours after drug administration by the cholesterol oxidase/peroxidase method (BioSystems S.A, Barcelona, Spain). Blood samples were obtained by femoral vein punction. This method was chosen because of its noninvasive character, enabling daily measurements with the same rats throughout the entire treatment.
Male SHR were provided by Charles River Laboratories (USA). Until the experiments were carried out, the animals have had free access to feed and water. The room temperature was kept at 22±2° C. and the light/dark cycle was of 12 hours. All procedures were submitted to the Animal Experimentation Ethics Committee.
as §2, with “metformin” for “metformin (MET)”, “Blood pressure was” for “Plasma cholesterol levels were”, “4” for “12”, “administration in warmed warmed, restrained, conscious rats” for “administration”, “tail-cuff” for “cholesterol oxidase/peroxidase”, “with a computerized oscillometric system recorder (Nyprem, Cibertec).” for “(BioSystems S.A, Barcelona, Spain). Blood samples were obtained by femoral vein punction.”

[3] = test system: Drosophila melanogaster (Oregon-R strain); assay: Toxicology study: larva-to-adult viability and development time
Source text: The purpose of this study was to test and compare the potential toxic effects of compounds 5a, 6a and 7a on the larva-to-adult viability and development time in a Drosophila melanogaster (Oregon-R) flies. These studies have a relevant predictive role with the aim to anticipate possible adverse toxicological effects that may happen during preclinical studies with animal, preferably mammals. In addition, the data provided are highly quantitative.
Drosophila melanogaster (Oregon-R) flies were obtained by the University of the Balearic Islands (Spain). […] The larvae were seeded on standard food supplemented with the appropriate dose of compounds tested. Each compound was tested at 1, 10, 100, 1000 and 2000 μg/ml dissolved in standard food.
Fly adults were transferred from the serial transfer system to bottles with fresh food for 24 h. Adults 5 days old were placed on egg collecting devices (layers) containing a mixture of agar, water, acetic acid, and ethyl alcohol, with a drop of active yeast on it. Every 2 h., the layer glasses were changed, in this way, the eggs of a glass have similar age, with a maximum difference of 2 h. among them. The glasses of the layers were kept at 25° C. for at least 22 h. in Petri dishes until larvae hatched. Fifty larvae were picked with a lancet under a stereoscopic microscope and were seeded into 10×2 cm vials with 5 ml food. Vials were supplemented with 4a, 5a and 7a at 1, 10 and 100 μg/ml. As positive control we used cupric acetate (toxic) at 350 μg/ml.
The number of adult flies which emerged from each vial was counted daily until the exhaustion of the culture. The parameters studied were the larvae-to-adult viability (V) and development time.
Viability is expressed as V=NA/NL, where NL is the input number of larvae ([…] in our case) and NA the output number of adults emerging from these NL larvae. Development time was measured in days by the formula DT=ΣNidi/ΣNi where Ni is the number of flies emerging on the day di after the larvae were placed in the medium.
The data are expressed as the mean±SEM values from 3 independent experiments involving triplicate vials at the number of flies indicated.

[4] = test system: female Swiss mice; assay: Acute oral toxicology study in a mice model; type: in vivo; conditions: oral 2000 mg/kg single dose, observation for 14 days
Procedure: The experiments were conducted using female Swiss mice (20-30 g), housed under a 12-h light-dark cycle, with controlled humidity (60-80%), and temperature (22±1° C.). Food and water were freely available to the mice.
Female mice (n=6) were orally (2000 mg/kg) administered with a single dose of 4a, 5a, and 7a for the observation of acute signs of toxicity until 14 days. […] The observations comprised the behavior and manifestations of the toxic symptoms, and were carried out according to the Guidelines of the Organization for Economic Cooperation and Development (OECD, 2008).
All compounds were dissolved in sterile saline and were administered by oral gavage to mice based in the weight, for example 20 g received 20 μL.
The data are expressed as mean±S.E.M. of experiments. Statistical significance was determined through one-way analysis of variances (ANOVA), followed by either Newman-Keuls test. A p<0.05 was considered statistically significant. Graphs were drawn and statistical analysis was carried out using GraphPad Prism version 5.00 for Windows (GraphPad Software, San Diego, Calif., USA).

[5] = test system: normoglycemic rats; assay: Oral glucose tolerance test in normoglycemic rats (Examples 36, 37); type: in vivo, Male Wistar rats; conditions: 10 mg/kg orally, single dose per day
Procedure: as §1, with “rats (200-300 g)” for “rats”, “C. with controlled humidity (60-80%)” for “C.”
The glucose tolerance test was evaluated as described by Al-Awaki et al (6).
Rats were randomly divided into […] groups of four animals that were control group that received only a solution of saline, compound 23b group (10 mg/kg), compound 21a group (10 mg/kg) and metformin 300 mg/kg group. Respective treatments were made orally and daily for five days.
(§3) On day 1, 3, and 5, different groups of rats were fasted overnight (at least 12 h) prior to the test, but with given water ad libitum. The oral glucose tolerance test was carried out by administering of a glucose solution (2 g/kg body weight) according to Al-Awadi et al (6). Glycemia was determined in blood samples collected from the tail vein at −30 minutes (just before the administration of the oral extract) time 0 (prior to the glucose overload) and at 60 minutes after the glucose overload. Serum glucose concentrations were measured by the glucose oxidase method (7) using commercial kit (Accuchek-performa (Roche)) according to the manufacture's instructions.
as §1, with “rats (200-300 g)” for “rats”, “C. with controlled humidity (60-80%)” for “C.”, “hours. All procedures were submitted to the Animal Experimentation Ethics Committee.” for “hours.”
The compounds 21b, 23a and 23d were diluted firstly in 20 μl of ethanol and after in 980 μl de saline. Compounds 21e, 23e and 26b were dissolved in sterile saline and were administered by oral gavage to rats based in the weight, for example 200 g received 200 μL.
54 rats were randomly divided into […] groups of five-eight animals that were control group (n=8) that received only a solution of vehicle, compound 21b group (n=5) (10 mg/kg), compound 21e group (n=5) (10 mg/kg), compound 23e group (n=5) (10 mg/kg), compound 23a group (n=5) (10 mg/kg), compound 23d group (n=5) (10 mg/kg), compound 26b group (n=5) (10 mg/kg) and metformin (n=6) 300 mg/kg group. Respective treatments were made orally and daily for five days.
as §3, with “manufactures's” for “manufacture's”

[6] = fifth day, in relation to control group

COc1ccc(-c2nc(C(=O)N/N=C/c3ccccc3)cc3c2[nH]c2ccccc23)cc1 [Compound 7a, 3-(carbohydrazyl-N′-phenylsubstitute)-1-benzosubstitute-β-carbolinic-3-carbohydrazide]
glycemic levels of animals that received an oral glucose overload ([1]; after 3 days, 0.5 mg/kg oral once a day): only the 1 and 5 mg/kg doses reduced statistically significant the glycemic levels | glycemic levels of animals that received an oral glucose overload ([1]; after 3 days, 1 mg/kg oral once a day): reduced statistically significant the glycemic levels | glycemic levels of animals that received an oral glucose overload ([1]; after 3 days, 5 mg/kg oral once a day, 5 mg/kg): reduces the glycemic levels; also recorded: reduced statistically significant the glycemic levels | glycemic levels of animals that received an oral glucose overload ([1]; first day, 5 mg/kg oral, 60 min after glucose 2 g/kg): reduces the glycemic levels | plasma cholesterol levels [2]: inhibition of plasma cholesterol levels | larvae-to-adult viability and development time ([3]; in vivo): not affected | mortality or behavioral disorders (acute signs of toxicity) [4]: did not produce mortality or any behavioral disorders

Cl.NCCNC(=O)c1cc2c([nH]c3ccccc32)c(-c2ccc(Cl)cc2)n1 [Compound 21b, N-(2-aminoethyl)-1-(4-chlorophenyl)-9H-pyrido[3,4-b]indole-3-carboxamide]
glucose levels in oral glucose tolerance test [5, 6]: reduced the glucose levels

COc1ccc(-c2nc(C(=O)N3CCOCC3)cc3c2[nH]c2ccccc23)cc1.Cl [Compound 23a, [1-(4-methoxyphenyl)-9H-pyrido[3,4-b]indol-3-yl]-4-morpholinyl-Methanone Hydrochloride]
glucose levels in oral glucose tolerance test ([5]; first day): significant reduction in glucose levels

COc1ccc(-c2nc(C(=O)NCCN(C)C)cc3c2[nH]c2ccccc23)cc1 [Compound 23b, N-(2-dimethylaminoethyl)-1-(4-methoxyphenyl)-9H-pyrido[3,4-b]indole-3-carboxamide hydrochloride]
glucose levels in oral glucose tolerance test [5, 6]: reduced the glucose levels | glucose levels in oral glucose tolerance test ([5]; third day): significant reduction in glucose levels

COc1ccc(-c2nc(C(=O)NCCO)cc3c2[nH]c2ccccc23)cc1.Cl [Compound 23d, N-(2-hydroxyethyl)-1-(4-methoxyphenyl)-9H-pyrido[3,4-b]indole-3-carboxamide hydrochloride]
glucose levels in oral glucose tolerance test [5, 6]: reduced the glucose levels

COc1ccc(-c2nc(C(=O)NCCCCN)cc3c2[nH]c2ccccc23)cc1.Cl [Compound 23e, N-(4-aminobutyl)-1-(4-methoxyphenyl)-9H-pyrido[3,4-b]indole-3-carboxamide hydrochloride]
glucose levels in oral glucose tolerance test [5, 6]: reduced the glucose levels | glucose levels in oral glucose tolerance test ([5]; first day): significant reduction in glucose levels | glucose levels in oral glucose tolerance test ([5]; third day): significant reduction in glucose levels

CC(=O)[O-].CC(=O)[O-].[Cu+2] [Cupric acetate, cupric acetate, reference compound]
Larva-to-adult viability (% emerged adult flies) ([3]; 350 μg/ml, positive control (toxic)): 0%

Reference: patent US9440966B2, “Compounds for treatment of metabolic syndrome” (SJT MOLECULAR RESEARCH, S.L., priority 2011, dated 2016)
